Assays:
human GHS-R 1a [1] = target: T1, human GHS-R 1a (Homo sapiens, UniProt Q92847); test: GHS-R 1a receptor-ligand binding assay (membrane preparations from transfected LLC PK-1 cells); parameters: expressed in transfected cells; conditions: displacement of 125I-His9-ghrelin; plasma membranes of LLC PK-1 cells transiently transfected with human GHS-R 1a; mean of at least two independent experiments in triplicates
Procedure, shortened: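 Membranes (10 μg protein) from LLC PK-1 cells transiently transfected with human GHS-R 1a cDNA were incubated 60 min at 25° C in 50 mM Tris pH 7.3 buffer with […] ^125I-His^9-ghrelin, with nonspecific binding defined by 10^−6 M ghrelin. Filter-bound radioactivity was gamma-counted, and IC50 was obtained by non-linear regression of competition curves.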

human GHS-R 1a [2] = target: T1, human GHS-R 1a; test: In vitro intracellular calcium release assay using human GHS-R 1a transfected CHO cells; assay type: cell-based; parameters: expressed in transfected cells; host or cells: CHO-K1 Chinese hamster ovary cells (ATCC No. CCL-61), transient transfection by electroporation; conditions: antagonist dissociation constant, antagonist inhibition curves in the presence of 10^-7 M ghrelin, Cheng-Prusoff equation, Fluo-4 AM
human GHS-R 1a [3] = target: T1, human GHS-R 1a; test: as above; assay type: cell-based; parameters: expressed in transfected cells; host or cells: CHO-K1 Chinese hamster ovary cells (ATCC No. CCL-61), transient transfection by electroporation; conditions: intracellular calcium release, compound at 10^-6 M, relative to basal level (0%) and 1 μM ghrelin (100%)
Procedure: The ability to properly activate the receptors is assessed for any compound of the invention by comparing the degree of activation (increase of intracellular calcium) of GHS-R 1a by the compound to be tested (at 10^−6 M concentration) to the degree of activation (increase of intracellular calcium) of GHS-R 1a by 10^−6 M ghrelin (100%) and to the basal level (0%). Such assessment can be readily performed by the skilled artisan due to his expert knowledge. The output is a percentage value for each compound to be tested. […]
III) In Vitro Intracellular Calcium Release Assay Using Human GHS-R 1a Transfected CHO Cells
The potential of the compounds of the invention to modulate GHS receptor activity was assessed by an in vitro intracellular Calcium release assay employing CHO cells that were transfected with human GHS-R 1a.
Release of intracellular calcium or inhibition thereof was measured using the fluorescent calcium indicator assay (FLIPR) and Fluo-4 AM.
CHO cells (CHO-KI Chinese Hamster Ovary cell line, ATCC No. CCL-61) were transiently transfected with human GHS-R 1a cDNA by electroporation and plated into 96-well black bottom plates (Corning 3603) (80,000 cells/well). Transient transfections were performed using the Easyject Optima Electroporator (Equibio), according to the manufacturer's instructions.
Transfected cells were grown in Dulbecco's modified Eagle's medium without phenol red, supplemented with 10% (v/v) non-essential amino acids, […] glutamine and streptomycin-penicillin (250 μg/ml-250 u/ml) (all purchased from Cambrex) at 37° C., 5% CO2 in a humidified atmosphere for 24 hours.
After incubation, transfected cells were washed with 150 μl Buffer A [Hanks' balanced salt solution (Sigma H-6648), 0.5% (v/v) BSA (Sigma A-7906), 20 mM CaCl2, 2.5 mM probenecid (pH 7.4, dissolved in 1 M NaOH) (Sigma P-8761)] and were then loaded with fluorescent calcium indicator Fluo-4 AM (10^−6 M) (Interchim UP72972) prepared in Buffer A, additionally containing 0.06% pluronic acid (Molecular probes P-6867) (a […] detergent which facilitates Fluo-4AM ester loading). (Loading: 100 μl per well of Buffer A containing 120 μl/ml Pluronic Acid and 1 μM Fluo-4AM was added to the cells).
After loading with Fluo-4 AM, transfected cells were incubated for 1 hour in the dark at 37° C.
Compounds to be tested were dissolved in Buffer A in triplicates at a concentration of 10^−6 M and distributed into another 96-well plate (Fisher Labosi A1210500).
Following incubation, excess Fluo-4AM was removed, 100 μl of Buffer A was added to each well at room temperature and immediately removed by aspiration. This was then repeated, before adding 50 μl Buffer A to each well.
Transfected cells were further incubated room temperature for 30 min to allow complete de-esterification of intracellular Fluo-4AM esters.
Subsequently, both plates, the black-bottom plate containing transfected cells and the microtiter plate containing the compounds to be tested, were then placed into a temperature-regulated (25° C.) FlexStation machine (benchtop scanning fluorometer Flex Station II, Molecular Devices, Sunnyvale, Calif., USA) for fluorescence output measurements.
Basal fluorescence output from the transfected cells was measured for 15 sec and then 50 μl of the compounds to be tested were automatically distributed into the wells containing the transfected cells. The fluorescence output was then recorded for a further 45 sec.
Excitation and emission wavelengths were 485 nm and 525 nm, respectively. Basal fluorescence intensity of Fluo-4AM-loaded transfected cells without compounds to be tested varied between 800-1200 arbitrary units, whereas maximal fluorescence output of dye-loaded transfected cells upon incubation with the compounds to be tested varied between 5000-7000 arbitrary units and was equivalent to that achieved by stimulation of dye-loaded transfected cells with 10^−6 M ghrelin. […]

T1 sequence (Q92847 whole entry): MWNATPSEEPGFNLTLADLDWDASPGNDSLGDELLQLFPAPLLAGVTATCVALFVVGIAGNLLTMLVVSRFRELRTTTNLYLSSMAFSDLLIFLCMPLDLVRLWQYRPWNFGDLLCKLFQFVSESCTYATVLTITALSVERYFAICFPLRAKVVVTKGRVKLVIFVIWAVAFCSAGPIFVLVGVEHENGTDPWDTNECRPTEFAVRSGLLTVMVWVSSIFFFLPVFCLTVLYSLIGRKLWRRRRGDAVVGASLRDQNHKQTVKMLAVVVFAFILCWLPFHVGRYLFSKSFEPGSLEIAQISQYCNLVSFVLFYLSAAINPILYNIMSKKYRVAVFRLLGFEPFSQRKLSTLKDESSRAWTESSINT

IC50 (human GHS-R 1a [1]) [nM]	Kb (human GHS-R 1a [2]) [nM]	activation at 1 µM (human GHS-R 1a [3]) [%]	SMILES
350	64	0	COc1ccc(Cn2c(CCc3ccccc3)nnc2[C@@H](Cc2c[nH]c3ccccc23)NC(=O)c2ccn[nH]2)c(OC)c1 [Compound 8, N-((R)-1-(4-(2,4-dimethoxybenzyl)-5-phenethyl-4H-1,2,4-triazol-3-yl)-2-(1H-indol-3-yl)ethyl)-1H-pyrazole-5-carboxamide]
12	40	0	COc1ccc(Cn2c(CCc3cc4ccccc4[nH]3)nnc2[C@@H](Cc2c[nH]c3ccccc23)NC(=O)C2CCOCC2)c(OC)c1 [Compound 11, N-((R)-1-(5-(2-(1H-indol-2-yl)ethyl)-4-(2,4-dimethoxybenzyl)-4H-1,2,4-triazol-3-yl)-2-(1H-indol-3-yl)ethyl)-tetrahydro-2H-pyran-4-carboxamide]
15.8	68	3	COc1ccc(Cn2c(CCc3ccccc3)nnc2[C@@H](Cc2c[nH]c3ccccc23)NC(=O)C2CCOCC2)c(OC)c1 [Compound 12, N-((R)-1-(4-(2,4-dimethoxybenzyl)-5-phenethyl-4H-1,2,4-triazol-3-yl)-2-(1H-indol-3-yl)ethyl)-tetrahydro-2H-pyran-4-carboxamide]
89.8	12.8	15	COc1ccc(Cn2c(CCc3c[nH]c4ccccc34)nnc2[C@@H](Cc2c[nH]c3ccccc23)NC(=O)c2ccn[nH]2)cc1 [Compound 14, N-((R)-1-(5-(2-(1H-indol-3-yl)ethyl)-4-(4-methoxybenzyl)-4H-1,2,4-triazol-3-yl)-2-(1H-indol-3-yl)ethyl)-1H-pyrazole-5-carboxamide]
390	275	0	O=C(N[C@H](Cc1c[nH]c2ccccc12)c1nnc(CCc2ccccc2)n1Cc1cccc2ccccc12)C1CCOCC1 [Compound 19, N-((R)-2-(1H-indol-3-yl)-1-(4-((naphthalen-1-yl)methyl)-5-phenethyl-4H-1,2,4-triazol-3-yl)ethyl)-tetrahydro-2H-pyran-4-carboxamide]
80	300	0	O=C(N[C@H](Cc1c[nH]c2ccccc12)c1nnc(CCCc2c[nH]c3ccccc23)n1Cc1ccccc1)c1ccccn1 [Compound 21, N-((R)-1-(5-(3-(1H-indol-3-yl)propyl)-4-benzyl-4H-1,2,4-triazol-3-yl)-2-(1H-indol-3-yl)ethyl)picolinamide]
370	50	15	O=C(N[C@H](Cc1c[nH]c2ccccc12)c1nnc(CCCc2c[nH]c3ccccc23)n1Cc1ccccc1)C1CCOCC1 [Compound 23, N-((R)-1-(5-(3-(1H-indol-3-yl)propyl)-4-benzyl-4H-1,2,4-triazol-3-yl)-2-(1H-indol-3-yl)ethyl)-tetrahydro-2H-pyran-4-carboxamide]
110	340	0	O=C(Cc1ccccn1)N[C@H](Cc1c[nH]c2ccccc12)c1nnc(Cc2ccccc2)n1Cc1ccc(Cl)c(Cl)c1 [Compound 34, N-((R)-1-(4-(3,4-dichlorobenzyl)-5-benzyl-4H-1,2,4-triazol-3-yl)-2-(1H-indol-3-yl)ethyl)-2-(pyridin-2-yl)acetamide]
70	215	20	O=C(N[C@H](Cc1c[nH]c2ccccc12)c1nnc(Cc2ccccc2)n1Cc1ccc(Cl)c(Cl)c1)c1ccccn1 [Compound 36, N-((R)-1-(4-(3,4-dichlorobenzyl)-5-benzyl-4H-1,2,4-triazol-3-yl)-2-(1H-indol-3-yl)ethyl)picolinamide]
200	215	0	O=C(N[C@H](Cc1c[nH]c2ccccc12)c1nnc(Cc2ccccc2)n1Cc1ccc(Cl)c(Cl)c1)C1CCOCC1 [Compound 37, N-((R)-1-(4-(3,4-dichlorobenzyl)-5-benzyl-4H-1,2,4-triazol-3-yl)-2-(1H-indol-3-yl)ethyl)-tetrahydro-2H-pyran-4-carboxamide]
